A short description of series [1]: Solid state polarisation after DNP, followed by solid state 13C-NMR. As to conditions: DNP at 1.2 K, 3.35 T, microwave 93.89 GHz, trityl radical and Gd-chelate. The series is classed as physicochemical. An excerpt:
The level of polarisation may for instance be determined by solid state ^13C-NMR measurements in solid hyperpolarised ^13C-acetate, e.g. solid hyperpolarised ^13C-acetate obtained by dynamic nuclear polarisation (DNP) of ^13C-acetate. The solid state ^13C-NMR measurement preferably consists of a simple pulse-acquire NMR sequence using a low flip angle. The signal intensity of the hyperpolarised ^13C-acetate in the NMR spectrum is compared with signal intensity of ^13C-acetate in a NMR spectrum acquired before the polarisation process. The level of polarisation is then calculated from the ratio of the signal intensities of before and after polarisation.
The probe is inserted into the probe-retaining container, submerged in the liquid helium and irradiated with microwaves. The microwave frequency may be determined from the EPR line of the DNP agent, which depends on the magnetic field of the magnet as 28.0 GHz/T. The optimal microwave frequency may be determined by adjusting the frequency for maximal NMR signal. Preferably, the optimal microwave frequency is in the about 94 GHz for a magnet charged to 3.35 T, 110 GHz for a magnet charged to 4 T, 140 GHz for a magnet charged to 5 T and 200 GHz for a magnet charged to 7 T. The power may be chosen between 50 and 200 mW, dependent on the probe size. The level of polarisation may be monitored as earlier described by for instance acquiring solid state ^13C-NMR signals of the probe during microwave irradiation. Generally, a saturation curve is obtained in a graph showing NMR signal vs. time. […] A solid state ^13C-NMR measurement suitably consists of a simple pulse-acquire NMR sequence using a low flip angle. […] The polarisation is then calculated from the ratio of the signal intensities before and after DNP.
To a micro test tube was added sodium ^13C1-acetate (Aldrich, 24.9 mg, 0.30 mmol) and 16 μl water. […] Polarisation was followed by solid state ^13C-NMR and the solid state polarisation was determined to be more than 20%. […]

The nature of series [2]: Liquid state polarisation of the dissolved imaging medium by liquid state 13C-NMR. The series is classed as physicochemical. To be noted: for liquid state polarisation: liquid state 13C-NMR at 400 MHz, after 75 min DNP, dissolved in phosphate buffer pH 7, 50 mM. As to the method:
In a similar way, the level of polarisation for dissolved hyperpolarised ^13C-acetate may be determined by liquid state NMR measurements. Again the signal intensity of the dissolved hyperpolarised ^13C-acetate is compared with the signal intensity of the dissolved ^13C-acetate before polarisation. The level of polarisation is then calculated from the ratio of the signal intensities of ^13C-acetate before and after polarisation. Hyperpolarisation of NMR active ^13C-nuclei may be achieved by different methods which are for instance described in described in WO-A-98/30918, WO-A-99/24080 and WO-A-99/35508, and which all are incorporated herein by reference and hyperpolarisation methods known in the art are polarisation transfer from a noble gas, “brute force”, spin refrigeration, the parahydrogen method and dynamic nuclear polarisation (DNP).
After 75 minutes of dynamic nuclear polarisation, the obtained frozen polarised composition was dissolved in 6 ml phosphate buffer (20 mM, pH 7, 100 mg/l EDTA, 0.9% NaCl). The pH of the final solution containing the dissolved composition was 7.3±0.1. The sodium ^13C1-acetate concentration in said final solution was 50 mM.
Liquid state polarisation was determined by liquid state ^13C-NMR at 400 MHz to be 19%.
After 75 minutes of dynamic nuclear polarisation, the obtained frozen polarised composition was dissolved in 6 ml phosphate buffer (20 mM, pH 7, 100 mg/l EDTA, 0.9% NaCl). The pH of the final solution containing the dissolved composition was 7.3±0.1. The TRIS-^13C1-acetate-d3 concentration in said final solution was 50 mM.
Liquid state polarisation was determined by liquid state ^13C-NMR at 400 MHz to be 32%.

Another series relates to mouse myocardium. The experiment in a line: In vivo 13C-MR spectroscopy in mice (heart), conversion of hyperpolarised 13C-acetate to 13C-acetyl-CoA and 13C-acetylcarnitine. More on the design: species or system C57Bl/6 mouse. As to the method: 200 μl of an imaging medium which was prepared as described in Example 3a was injected into a C57Bl/6 mouse over a time period of 6 s. The TRIS-^13C1-acetate concentration in said imaging medium was 75 mM and the polarisation was 20% at the time of injection. A ^13C-surface coil (diameter 12 mm) was placed over the mouse myocardium. A rat ^1H-body coil was used for anatomical reference images and localised shimming. ^13C-MR spectroscopy was carried out with a 2.4 T Bruker spectrometer. A dynamic set of ^13C-MR spectra (in total 30) was acquired every 3 s with a 30 degree RF pulse. From this experiment a ^13C1-acetylcarnitine signal build-up over the time of the experiment was clearly seen (FIG. 1).
(§1) 200 μl of an imaging medium which was prepared as described in Example 3a was injected into a C57Bl/6 mouse over a time period of 6 s. The TRIS-^13C1-acetate concentration in said imaging medium was approx. 50 mM. In both experiments (n=2) a ^13C-surface coil (diameter 12 mm) was placed over the mouse myocardium and ^13C-MR spectroscopy was carried out in a 2.4 T Bruker spectrometer. A spectrum was acquired 10 s after the imaging medium had been injected with a 90 degree RF pulse. […] The ratio of ^13C1-acetylcarnitine to ^13C1-acetyl-CoA was roughly 3 times higher in the heart than in the liver, see Example 6.

The subject of the next series is mouse liver. The experiment in a line: In vivo 13C-MR spectroscopy in mice (liver), conversion of hyperpolarised 13C-acetate to 13C-acetyl-CoA and 13C-acetylcarnitine. Set-up: species or system C57Bl/6 mouse. As to conditions: 200 μl of approx. 50 mM, spectrum 10 s after injection, 90 degree pulse, n=2 (FIG. 2, 3). As to the method: as §1, with “liver” for “myocardium”, “lower” for “higher”, “5.” for “6.”

Take `NC(CO)(CO)CO.[2H]C([2H])([2H])[13C](=O)O` [TRIS-^13C1-acetate-d3]: the solid state polarisation result in series [1] is on record as “more than 25%”. This molecule also displayed a liquid state polarisation in series [2] of 32%.
The like results for `C[13C](=O)[O-].[Na+]` [sodium ^13C1-acetate] were, in that order, “more than 20%” and 19%.
For the molecule `C[13C](=O)O.NC(CO)(CO)CO` [TRIS-^13C1-acetate], the “13C1-acetylcarnitine signal build-up over the time of the experiment” value in the series with mouse myocardium (200 μl of 75 mM injected over 6 s, 30 spectra every 3 s, 30 degree pulse, 2.4 T (FIG. 1)) was “clearly seen”. Further, the “identification of 13C1-acetyl-CoA and 13C1-acetylcarnitine” value is given as “could be identified” in the series with mouse myocardium (200 μl of approx. 50 mM, spectrum 10 s after injection, 90 degree pulse, n=2 (FIG. 2, 3)) and “could be identified” with mouse liver. Further, the solid state polarisation result in series [1] is recorded as “more than 25%”. Further, in series [2] (imaging medium 75 mM, at the time of injection into mouse), the “polarisation at the time of injection” value is on record as 20%.

The values are drawn from patent US20110243855A1, “METHOD AND IMAGING MEDIUM FOR USE IN THE METHOD” (priority 2007, published 2011).
